The values that follow come from patent EP0641363B1, “DETERGENT COMPOSITIONS CONTAINING COPOLYMERS” (UNILEVER PLC, priority 1992, dated 1993).

A short description of the experiment: Calcium binding: titration with calcium chloride solution using a calcium-ion-selective electrode; binding constant calculated by the method of Tanford. On the procedure:
The calcium binding properties of the polymers were measured by titration of the samples with a calcium chloride solution using a calcium-ion-selective electrode of the type Radiometer (Trade Mark) F2112Ca. The calcium binding constant pKCa2+ was calculated by the method of C Tanford in Chapter 8, Multiple Equilibria, Physical Chemistry of Macromolecules, John Wiley, New York, 1961.
Values of pKCa2+ of 4.0 or above represent materials likely to be useful as detergency builders, either alone or in conjunction with other builder materials. The value for sodium tripolyphosphate is 6.0, and any figure higher than this indicates excellent building.

On to `O=P(O)(O)OP(=O)(O)OP(=O)(O)O` [sodium tripolyphosphate], for which the “pKCa2+” value is listed as 6.0.
